Laboratory results from patent US7323044B1, “Biocidal compositions” (Troy Corporation, priority 2007, dated 2008).

Experiments:
[1] = Amount of castor oil based co-solvent required to keep OBPA in solution with plasticizer; format: physicochemical; conditions: with commercial plasticizers (e.g., diisodecyl phthalate); about −13° C. to about 30° C.
Experimental: As a general rule, OBPA solutions which are transported or stored at outdoor conditions, without the benefit of dedicated heating or cooling equipment, may be exposed to temperatures in the range of about −13° C. to about 30° C. […] For OBPA solutions which will be transported or stored at outdoor conditions, we prefer that the weight ratio of OBPA to the solvent is about 0.12 or less in the present invention, more preferably in the range of about 0.083 to about 0.12, and most preferably about 0.10. For OBPA solutions which will be temperature-controlled during shipment and storage, the invention can be successfully practiced over a broader range of OBPA to solvent weight ratio.

[2] = background statement; cited from earlier work

In the case of c1ccc2c(c1)Oc1ccccc1[As]2O[As]1c2ccccc2Oc2ccccc21 [OBPA, 10,10′-oxybisphenoxarsine], the “Castor oil based co-solvent required to keep 1 gram of OBPA in solution” value [1] is given as “at least 8 grams” and the “Solubility of OBPA in plasticizers currently favored for manufacturing flexible PVC” value [2] is given as “less than 1 wt %”.
